One compound from publication PMC8395335, “Serotonergic–Muscarinic Interaction within the Prefrontal Cortex as a Novel Target to Reverse Schizophrenia-Related Cognitive Symptoms” (International Journal of Molecular Sciences, 2021) can be followed below.

Data set [1] concerns MK-801-treated mice. The data set is described as follows: Novel object recognition (NOR) test, MK-801-induced deficits. The data set is classed as in vivo. How it is done:
Drugs were administered on two different schedules: (1) acute administration of compounds 45 min (WAY100635—5-HT1A antagonist) or 30 min (VU0357017, VU152100, VU0238429, and F15599) before MK-801 (also administered once 30 min before the test in Y-maze or T1 in NOR test); and (2) prolonged administration (once per day for 7 consecutive days) of the compounds and MK-801 with the last administration 24 h before the test (NOR test) or at the day of the test (Y-maze). […] Schedules of administration are presented graphically in Figure 2. The subeffective doses of the compounds for acute administration in the NOR test were chosen based on our previous research (see: [22, 23]) while dose-dependent studies of the activity of the compounds in reversing disruptions in the Y-maze or after prolonged administration along with MK-801 were performed within this study. Different vehicles were used throughout the study: (1) 0.9% NaCl and (2) 10% Tween 80. Vehicles were administered to all animals (e.g., control mice and MK-801-treated mice) on the same schedule as drugs were administered to the appropriate drug-treated groups of mice. Neither solvent exerted effects on animal behavior.
Male Albino Swiss mice (Charles River, Sulzfeld, Germany) weighing 20–25 g at the beginning of the experiments were used in the studies. The animals were housed in a room with a 12:12 h light-dark cycle at a temperature of 22 ± 1 °C with food and water available ad libitum. The experimental groups consisted of 8–10 animals. All drugs were administered intraperitoneally (i.p.) at a volume of 10 mL/kg. The behavioral experiments were performed by an observer who was blinded to the treatment. The procedures were conducted in accordance with the European Communities Council Directive of 22 September 2010 (2010/63/EU) and Polish legislation acts concerning animal experimentation and were approved by the II Local Ethics Committee by the Maj Institute of Pharmacology, Polish Academy of Sciences in Krakow (15/2020, 240/2020).
In acute experiments, the tested compounds (alone or in combination) were administered 30 min before MK-801 (0.3 mg/kg), which was administered 30 min before the test or training trial (T1) in the NOR test. In chronic experiments, the tested compounds (alone or in combination) and MK-801 were administered for seven days. Behavioral tests were performed on the eighth day.
The NOR test was performed as described previously. Briefly, the habituation, training and test trial were carried out in a dark room in a black, plastic rectangular arena illuminated with a 355 lux bulb. During the habituation trial, the animals were allowed to explore the arena in the absence of objects (10 min/day for 2 days). The next day, the training (T1) and test (T2) trials were performed. Throughout T1, mice were allowed to freely explore two identical objects (5 min), one of which was subsequently replaced by a novel object in T2 (1 h later, 5 min of exploration). Time spent exploring (i.e., sniffing or touching) the familiar (Tfamiliar) or novel object (Tnovel) was measured by a trained observer, and then the recognition index was calculated for each mouse [(Tnovel − Tfamiliar)/(Tfamiliar + Tnovel)] × 100.

Data set [2] in a line: Pharmacokinetic analysis of drug-drug interactions (plasma, FC concentration, FC penetration). The data set is classed as in vivo, mice. The following applies: for Kp at 30 min / concentration at 30 min: Albino Swiss, mouse, intraperitoneal; for Kp at 30 min: frontal cortex/plasma. The protocol: The experiment was performed using the methods described by Bridges et al. and in our previous studies.
The pharmacokinetic analysis was performed in the blood and prefrontal cortex. […] Plasma and FC samples were stored at −80 °C until analysis.
The investigated compounds were administered alone at the top dose (F15599—0.1 mg/kg, VU0357017—5 mg/kg, VU0152100—1 mg/kg, and VU0238429—5 mg/kg) and in combinations of muscarinic ligands at subeffective doses with F15599 at subeffective dose (F15599 + VU0357017 0.05 and 0.15 mg/kg, F15599 + VU0152100 0.05 and 0.05 mg/kg, F15599 + VU0238429 0.05 and 1 mg/kg). The FC and blood were collected on the eighth day, 30 min after administration. All mice were parallelly treated with MK-801 (0.3 mg/kg) for seven consecutive days.
On the day of analysis, frozen whole mouse brain tissues were weighed and homogenized in 1:2 (w/v) volumes of ice-cold acetonitrile containing 0.1% FA and the internal standard mix. Samples were homogenized using a Metal Bead Lysing Matrix, vortexed for 1 min, shaken for 20 min at 4 °C on Thermomixer C, and centrifuged at 14,000× g rpm for 20 min at 4 °C. Finally, 50 µL of supernatant were diluted with 0.1% FA in water (1:1, v/v) and analyzed using HPLC/MS/MS.
The sample extraction of plasma (20 μL) was performed after spiking with the internal standard mix using the protein precipitation method and three volumes of ice-cold acetonitrile containing 0.1% formic acid. The extract was vortexed, incubated on ice for 20 min and centrifuged at 14,000× g rpm for 20 min at 4 °C. The supernatant was diluted with 0.1% FA in water (1:1, v/v) and analyzed by means of HPLC/MS/MS using a QTRAP 4500 (AB Sciex) mass spectrometer in positive ion mode in Multiple Reaction Monitoring (MRM screening) coupled with UHPLC (NEXERA XR, Shimadzu). Chromatographic separation was achieved on a Synergi 4 µm Fusion-RP 80 A 50 × 2 mm (Phenomenex) column at a flow rate of 0.2 mL/min. The gradient program was as follows: 20% B (0.3 min), 20–100% B (1.7 min), 100% B (3 min), 100–20% B (0.1 min), 20% B (2 min), solvent A (95:5:0.1% formic acid in water:methanol) and solvent B (methanol containing 0.1% formic acid). The column temperature was set to 40 °C. Analyst software was used to control the instrument and collect data. The ion transfer tube temperature was 300 °C. The spray voltage, collision energy, declastering potential, and gas parameters were optimized to achieve the maximal response using the test compounds. Selected reaction monitoring was carried out using the transition parameters. Calibration curves were constructed, and a linear response was obtained in the range of 0.25–500 ng/mL (VU357017, VU0152100, and F15599) and 1.25–2500 ng/mL (VU0238429) by spiking known amounts of each compound in blank brain homogenates and plasma. For VU0357017 and F15599 IS VU0152100 was used as internal standard. Sample concentration of internal standard was 100 ng/mL for IS VU0238429 and 50 ng/mL for IS VU0152100.
Brain penetration was calculated as FC/plasma ratio × 100%.

SMILES strings stand for the structures. Read-outs that look alike come from different tables or passages of the source.

Regarding `CCOC(=O)N1CCC(NCCNC(=O)c2ccccc2C)CC1` [VU0357017], in data set [1] (7 days with MK-801, 0.15 mg/kg), the “Reversal of MK-801-induced deficits in the NOR test (recognition index)” value is listed as “ineffective”. In data set [1] (7 days, F15599 0.05 mg/kg with VU0357017 0.15 mg/kg (subeffective doses)), the “Reversal of MK-801-induced disruptions in NOR test by combined administration” value is “reversed”. Moreover, the “Effect of top dose on MK-801-induced deficits in the NOR test” value in data set [1] (acute, 5 mg/kg i.p., alone) is recorded as “pro-cognitive effect”. In addition, in data set [1] (acute, subeffective doses, F15599 with VU0357017), the “Effect of combined administration on MK-801-induced memory deficits in the NOR test” value is reported as “no effect”. For the same compound, the Kp at 30 min in data set [2] (acute, combination F15599 0.05 mg/kg + VU0357017 1 mg/kg, read-out: PFC Penetration) came to 0.31; in data set [2] (acute, top doses alone (VU0357017 5, VU0152100 1, VU0238429 5, F15599 0.1 mg/kg), 30 min after administration, read-out: PFC Penetration (FC/plasma ratio x 100%)), 0.67; in data set [2] (chronic (7 days with MK-801), combination F15599 0.05 mg/kg + VU0357017 0.15 mg/kg, read-out: PFC Penetration) it was 0.46; in data set [2] (chronic (7 days with MK-801), top doses alone (VU0357017 5, VU0152100 1, VU0238429 5, F15599 0.1 mg/kg), read-out: PFC Penetration (FC/plasma ratio x 100%)) it was 0.36. For the same compound, the concentration at 30 min came out at 7.19 ± 0.24 ng/mL in data set [2] (plasma, acute, combination F15599 0.05 mg/kg + VU0357017 1 mg/kg, read-out: Plasma); 107 ± 7.65 ng/mL in data set [2] (plasma, acute, top doses alone (VU0357017 5, VU0152100 1, VU0238429 5, F15599 0.1 mg/kg), 30 min after administration, read-out: Plasma); 5.13 ± 0.38 ng/mL in data set [2] (plasma, chronic (7 days with MK-801), combination F15599 0.05 mg/kg + VU0357017 0.15 mg/kg, read-out: Plasma); 138 ± 14.9 ng/mL in data set [2] (plasma, chronic (7 days with MK-801), top doses alone (VU0357017 5, VU0152100 1, VU0238429 5, F15599 0.1 mg/kg), read-out: Plasma); 2.25 ± 0.56 ng/mL in data set [2] (prefrontal cortex (FC), acute, combination F15599 0.05 mg/kg + VU0357017 1 mg/kg, read-out: PFC); 71.7 ± 4.69 ng/mL in data set [2] (prefrontal cortex (FC), acute, top doses alone (VU0357017 5, VU0152100 1, VU0238429 5, F15599 0.1 mg/kg), 30 min after administration, read-out: PFC). Besides, the concentration at 30 min stood at 2.34 ± 0.255 ng/mL in data set [2] (prefrontal cortex (FC), chronic (7 days with MK-801), combination F15599 0.05 mg/kg + VU0357017 0.15 mg/kg, read-out: PFC) and 50.3 ± 4.62 ng/mL in data set [2] (prefrontal cortex (FC), chronic (7 days with MK-801), top doses alone (VU0357017 5, VU0152100 1, VU0238429 5, F15599 0.1 mg/kg), read-out: PFC). In addition, the “PFC Penetration (FC/plasma ratio x 100%)” value in data set [2] (acute, top doses alone (VU0357017 5, VU0152100 1, VU0238429 5, F15599 0.1 mg/kg), 30 min after administration) turned out to be 67%; in data set [2] (chronic (7 days with MK-801), top doses alone (VU0357017 5, VU0152100 1, VU0238429 5, F15599 0.1 mg/kg)), 36%. In data set [2] (subeffective doses, compared to top dose alone), the “Decrease of FC penetration after acute concomitant administration with F15599” value is “more than 50%”. Besides, in data set [2] (top doses alone, animals treated with MK-801), the “Decrease of FC penetration after prolonged administration compared to acute” value is given as “ca. 50%”.
